Assays:
Experiment in all cases: relative viability (nuclei count vs DMSO), 5 days (fraction); higher = more cells survive
Motesanib + Alpelisib = compound: CC1(C)CNc2cc(NC(=O)c3cccnc3NCc3ccncc3)ccc21 [Motesanib] + Cc1nc(NC(=O)N2CCC[C@H]2C(N)=O)sc1-c1ccnc(C(C)(C)C(F)(F)F)c1 [Alpelisib] (partner 2 µM)
Summary of the method: (§1)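 Cells from lung cancer lines were seeded into 1536-well plates and, one day later, dosed by pin tool. Treatments were either a single drug or a fixed dose of an anchor drug with five library-drug doses (not always all listed) in √10 steps. After 5 days, nuclei were stained in a one-step fixation (final 0.05% Triton X-100, 1% formaldehyde, 1 ug/ml Hoechst) and counted on 4× images, and relative viability is the treated-to-vehicle nuclei ratio, as the median of duplicate plates.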

Motesanib + Olaparib = compound: CC1(C)CNc2cc(NC(=O)c3cccnc3NCc3ccncc3)ccc21 [Motesanib] + O=C(c1cc(Cc2n[nH]c(=O)c3ccccc23)ccc1F)N1CCN(C(=O)C2CC2)CC1 [Olaparib] (partner 8 µM)
Summary of the method: as §1

[1] = compound: C[C@@]1(C(=O)Nc2ccc(F)nc2)CCCN1c1nc(Nc2cc(C3CC3)n[nH]2)c2cccn2n1 + CC(C)C[C@H](NC(=O)[C@H](Cc1ccccc1)NC(=O)c1cnccn1)B(O)O [Bortezomib] (partner 0.002 µM)
Summary of the method: as §1

[2] = compound: C[C@@]1(C(=O)Nc2ccc(F)nc2)CCCN1c1nc(Nc2cc(C3CC3)n[nH]2)c2cccn2n1 + C[C@]1(O)C[C@@H](c2nc(-c3ccc4ccc(-c5ccccc5)nc4c3)c3c(N)nccn32)C1 [Linsitinib] (partner 1 µM)
Summary of the method: as §1

Cell Line | relative viability (Motesanib + Alpelisib; first compound 0.01 µM) | relative viability (Motesanib + Alpelisib; first compound 0.03162 µM) | relative viability (Motesanib + Alpelisib; first compound 0.1 µM) | relative viability (Motesanib + Alpelisib; first compound 0.3162 µM) | relative viability (Motesanib + Alpelisib; first compound 1 µM) | relative viability (Motesanib + Olaparib; first compound 0.01 µM) | relative viability (Motesanib + Olaparib; first compound 0.03162 µM) | relative viability (Motesanib + Olaparib; first compound 0.1 µM) | relative viability (Motesanib + Olaparib; first compound 1 µM) | relative viability ([1]; first compound 0.04 µM) | relative viability ([1]; first compound 0.1265 µM) | relative viability ([1]; first compound 0.4 µM) | relative viability ([1]; first compound 1.265 µM) | relative viability ([2]; first compound 0.04 µM) | relative viability ([2]; first compound 0.1265 µM) | relative viability ([2]; first compound 0.4 µM) | relative viability ([2]; first compound 1.265 µM) | relative viability (Motesanib + Olaparib; first compound 0.3162 µM)
HCC-78 | 0.337 | 0.304 | 0.35 | 0.356 | 0.333 | 0.938 | 0.789 | 0.655 | 0.834 | 0.445 | 0.855 | 0.293 | 0.317 | 0.541 | 0.332 | 0.313 | 0.259 | 
NCI-H1563 | 0.985 | 0.92 | 0.946 | 0.879 | 0.95 |  |  |  |  | 0.853 | 0.826 | 0.73 | 0.747 | 1.11 | 1.07 | 1.06 | 1.16 | 
HCC-15 | 0.97 | 0.885 | 0.969 | 0.972 | 0.931 | 0.632 | 0.74 | 0.739 | 0.724 | 0.943 | 0.742 | 0.881 | 1 | 0.902 | 0.885 | 0.782 | 0.981 | 0.702
EKVX | 0.778 | 0.883 | 0.875 | 0.922 | 0.895 | 0.74 | 0.809 | 0.776 | 0.944 | 1.01 | 1.05 | 0.796 | 0.926 | 0.989 | 0.742 | 0.725 | 0.964 | 0.904
NCI-H2087 | 1.01 | 1.08 | 1.07 | 1.16 | 1.03 |  |  | 0.663 | 0.747 | 0.778 | 0.825 | 0.624 | 0.631 | 0.933 | 0.935 | 0.962 | 0.932 | 0.703
LK-2 | 1.06 | 0.962 | 1.44 | 1.05 | 1.19 | 0.644 | 0.94 | 0.608 | 0.756 |  |  |  |  | 0.579 | 1.11 | 0.376 | 0.573 | 0.817
NCI-H1437 | 0.983 | 0.979 | 0.901 | 1.02 | 1.07 | 0.637 | 0.631 | 0.63 | 0.657 | 0.398 | 0.521 | 0.328 | 0.276 | 0.935 | 0.833 | 0.671 | 0.843 | 0.682
COR-L23 | 0.719 | 0.783 | 0.802 | 0.736 | 0.781 | 0.366 | 0.389 | 0.275 | 0.36 | 1.06 | 1.01 | 0.936 | 0.583 | 0.818 | 0.855 | 0.768 | 0.705 | 0.363
ABC-1 | 1.02 | 0.995 | 1.24 | 0.974 | 1.18 | 0.895 | 0.66 | 0.58 | 0.869 | 0.329 | 0.318 | 0.264 | 0.183 | 1.05 | 0.711 | 0.619 | 0.777 | 1.15
